According to paper PMC2802534 (Journal of medicinal chemistry, 2009):

Key:
[1] = tested on: HIV-1IIIB; test: Inhibition of HIV-1 IIIB replication in MT-2 cells, p24 production by ELISA; format: cell-based; details: for fold more potent than 12 and 13: replication of HIV-1 IIIB and 94UG103, relative to 12 and 13
[2] = tested on: HIV-1; details: previously identified; cited from earlier work

Compound	inhibit HIV-1 infection [2]	fold more potent than 12 and 13 [1]	further results
O=C(O)c1cc(-c2ccc(/C=C3\SC(=S)N(CCc4ccccc4)C3=O)o2)ccc1Br [11i, 2-Bromo-5-{5-[4-oxo-3-phenethyl-2-thioxothiazolidin-5-ylidenemethyl]furan-2-yl}-benzoic acid]	–	–	fold reduction of anti-HIV-1 activity ([1]; relative to unsubstituted 11a): ~ 7 fold
O=C(O)c1cc(-n2cccc2)ccc1Cl [compound 13, N-(3-carboxy-4-chloro) phenylpyrrole]	low μM level	–	–
Cc1ccc(-c2ccc(/C=C3\SC(=S)N(CCc4ccccc4)C3=O)o2)cc1C(=O)O [11b, 2-Methyl-5-{5-[4-oxo-3-phenethyl-2-thioxothiazolidin-5-ylidenemethyl]furan-2-yl}-benzoic acid]	–	more than 20 fold	–
O=C(O)c1cccc(-c2ccc(/C=C3\SC(=S)N(CCc4ccccc4)C3=O)o2)c1 [11a, 3-{5-[4-Oxo-3-phenethyl-2-thioxothiazolidin-5-ylidenemethyl]furan-2-yl}-benzoic acid]	–	more than 20 fold	–
Cc1ccc(C)n1-c1ccc(C(=O)O)c(O)c1 [compound 12, N-(4-carboxy-3-hydroxy)phenyl-2,5-dimethylpyrrole]	low μM level	–	–
O=C(O)c1cc(-c2ccc(/C=C3\SC(=S)N(CCc4ccccc4)C3=O)o2)ccc1Cl [11d, 2-Chloro-5-{5-[4-oxo-3-phenethyl-2-thioxothiazolidin-5-ylidenemethyl]furan-2-yl}-benzoic acid]	–	more than 20 fold	fold greater potency than 13 ([1]; relative to 13): ~ 25 fold
